# Molecular target: T1, b-Raf(V600E) (Homo sapiens, UniProt P15056, V600E)
# T1 construct: made in house
# Assay: Raf/Mek Amplified Luminescence Proximity Homogeneous Assay (Alpha Screen), b-Raf(V600E)
# Type: biochemical
# Settings: mutant b-Raf(V600E), read-out: mut-b-RAF (IC50 in uM)
# In short: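 IC50 derived by non-linear regression from AlphaScreen luminescence of phospho-MEK (anti-p-MEK antibody). Reaction: ~4 pM b-Raf(V600E), ~10 nM kinase-dead biotinylated Mek, 60 min compound pre-incubation, then 3 h with ATP at room temperature in pH 7.5 Tris/MgCl2/DTT buffer, quenched with EDTA.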
# T1 sequence (P15056 whole entry V600E): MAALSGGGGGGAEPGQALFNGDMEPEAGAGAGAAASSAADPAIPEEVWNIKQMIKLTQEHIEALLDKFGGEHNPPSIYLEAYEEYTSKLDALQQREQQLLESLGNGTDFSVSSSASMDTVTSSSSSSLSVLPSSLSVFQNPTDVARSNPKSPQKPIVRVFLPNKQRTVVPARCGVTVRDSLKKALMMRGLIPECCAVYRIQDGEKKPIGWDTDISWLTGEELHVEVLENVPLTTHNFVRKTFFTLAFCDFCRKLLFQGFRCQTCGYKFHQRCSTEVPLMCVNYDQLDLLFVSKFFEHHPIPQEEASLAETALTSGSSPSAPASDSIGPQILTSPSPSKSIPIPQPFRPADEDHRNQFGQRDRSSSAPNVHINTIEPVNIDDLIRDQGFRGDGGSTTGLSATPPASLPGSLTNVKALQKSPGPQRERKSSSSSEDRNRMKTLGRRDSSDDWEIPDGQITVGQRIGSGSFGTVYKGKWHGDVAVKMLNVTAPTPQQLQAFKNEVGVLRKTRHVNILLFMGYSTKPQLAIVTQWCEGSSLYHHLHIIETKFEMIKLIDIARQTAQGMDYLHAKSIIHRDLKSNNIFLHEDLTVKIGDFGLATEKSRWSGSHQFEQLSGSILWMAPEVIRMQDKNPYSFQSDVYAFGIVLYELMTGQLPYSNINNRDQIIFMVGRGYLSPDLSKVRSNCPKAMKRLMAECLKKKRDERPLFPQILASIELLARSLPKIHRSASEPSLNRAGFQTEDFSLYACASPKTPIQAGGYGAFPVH
row,SMILES,IC50 [nM]
1,"COCC(=O)N[C@@H](C)CNc1nccc(-c2[nH]c(-c3ccc(C(F)(F)F)cc3F)nc2-c2cnc(N)c(OC)n2)n1 [Compound 247, (S)-N-(1-(4-(4-(5-amino-6-methoxypyrazin-2-yl)-2-(2-fluoro-4-(trifluoromethyl)phenyl)-1H-imidazol-5-yl)pyrimidin-2-ylamino)propan-2-yl)-2-methoxyacetamide]",0.1
2,"COCC(=O)N[C@H](C)CNc1nccc(-c2[nH]c(-c3ccc(F)cc3)nc2-c2cnc(N)c(OC)n2)n1 [Compound 249, (R)-N-(1-(4-(4-(5-amino-6-methoxypyrazin-2-yl)-2-(4-fluorophenyl)-1H-imidazol-5-yl)pyrimidin-2-ylamino)propan-2-yl)-2-methoxyacetamide]",12
3,"COCC(=O)N[C@@H](C)CNc1nccc(-c2[nH]c(C3CC3)nc2-c2cnc(N)c(OC)n2)n1 [Compound 250, (S)-N-(1-(4-(4-(5-amino-6-methoxypyrazin-2-yl)-2-cyclopropyl-1H-imidazol-5-yl)pyrimidin-2-ylamino)propan-2-yl)-2-methoxyacetamide]",0.1
4,"COC(=O)N[C@@H](C)CNc1nccc(-c2[nH]c(C3(C)CC3)nc2-c2cnc(N)c(OC)n2)n1 [Compound 251, (S)-methyl 1-(4-(4-(5-amino-6-methoxypyrazin-2-yl)-2-(1-methylcyclopropyl)-1H-imidazol-5-yl)pyrimidin-2-ylamino)propan-2-ylcarbamate]",0.04
5,"COCC(=O)N[C@@H](C)CNc1nccc(-c2[nH]c(-c3ccc(F)cc3)nc2-c2nc(OC)c(N)nc2C)n1 [Compound 252, (S)-N-(1-(4-(4-(5-amino-6-methoxy-3-methylpyrazin-2-yl)-2-(4-fluorophenyl)-1H-imidazol-5-yl)pyrimidin-2-ylamino)propan-2-yl)-2-methoxyacetamide]",2.4
6,"COc1cc(Nc2nccc(-c3[nH]c(C(C)(C)C)nc3-c3nc(OC)c(N)nc3C)n2)ccn1 [Compound 253, 4-(4-(5-amino-6-methoxy-3-methylpyrazin-2-yl)-2-tert-butyl-1H-imidazol-5-yl)-N-(2-methoxypyridin-4-yl)pyrimidin-2-amine]",6.2
7,"COc1nc(-c2nc(C(C)(C)C)[nH]c2-c2ccnc(NC[C@H](C)NC(=O)[C@H](C)OC)n2)c(C)nc1N [Compound 254, (S)-N-((S)-1-(4-(4-(5-amino-6-methoxy-3-methylpyrazin-2-yl)-2-tert-butyl-1H-imidazol-5-yl)pyrimidin-2-ylamino)propan-2-yl)-2-methoxypropanamide]",3.8
8,"COCC(=O)N[C@@H](C)CNc1nccc(-c2[nH]c(C3CC3)nc2-c2nc(OC)c(N)nc2C)n1 [Compound 255, (S)-N-(1-(4-(4-(5-amino-6-methoxy-3-methylpyrazin-2-yl)-2-cyclopropyl-1H-imidazol-5-yl)pyrimidin-2-ylamino)propan-2-yl)-2-methoxyacetamide]",3.9
9,"CCOC(=O)N[C@@H](C)CNc1nccc(-c2[nH]c(C(C)(C)C)nc2-c2nc(OC)c(N)nc2C)n1 [Compound 256, (S)-ethyl 1-(4-(4-(5-amino-6-methoxy-3-methylpyrazin-2-yl)-2-tert-butyl-1H-imidazol-5-yl)pyrimidin-2-ylamino)propan-2-ylcarbamate]",1.1
10,"COc1nc(-c2nc(C(C)(C)C)[nH]c2-c2ccnc(NC[C@H](C)NC(=O)OC(C)C)n2)c(C)nc1N [Compound 257, (S)-isopropyl 1-(4-(4-(5-amino-6-methoxy-3-methylpyrazin-2-yl)-2-tert-butyl-1H-imidazol-5-yl)pyrimidin-2-ylamino)propan-2-ylcarbamate]",1.2
11,"COc1nc(-c2nc(C(C)(C)C)[nH]c2-c2ccnc(NC[C@H](C)NC(=O)OCC(C)C)n2)c(C)nc1N [Compound 258, (S)-isobutyl 1-(4-(4-(5-amino-6-methoxy-3-methylpyrazin-2-yl)-2-tert-butyl-1H-imidazol-5-yl)pyrimidin-2-ylamino)propan-2-ylcarbamate]",1.1
12,"COc1nc(-c2nc(C(C)(C)C)[nH]c2-c2ccnc(NC[C@H](C)NC(=O)OCC(C)(C)C)n2)c(C)nc1N [Compound 259, (S)-neopentyl 1-(4-(4-(5-amino-6-methoxy-3-methylpyrazin-2-yl)-2-tert-butyl-1H-imidazol-5-yl)pyrimidin-2-ylamino)propan-2-ylcarbamate]",1.5
13,"COC(=O)N[C@@H](C)CNc1nccc(-c2[nH]c(C(C)(C)C)nc2-c2nc(OC)c(N)nc2C)n1 [Compound 260, (S)-methyl 1-(4-(4-(5-amino-6-methoxy-3-methylpyrazin-2-yl)-2-tert-butyl-1H-imidazol-5-yl)pyrimidin-2-ylamino)propan-2-ylcarbamate]",1
14,"[2H]C([2H])([2H])Oc1nc(-c2nc(C(C)(C)C)[nH]c2-c2ccnc(NC[C@H](C)NC(=O)OC)n2)cnc1N [Compound 261, (S)-methyl 1-(4-(4-(5-amino-6-(D3-methoxy)pyrazin-2-yl)-2-tert-butyl-1H-imidazol-5-yl)pyrimidin-2-ylamino)propan-2-ylcarbamate]",0.1
15,"COC(=O)N[C@@H](C)CNc1nccc(-c2nc(C(C)(C)C)[nH]c2-c2cnc3[nH]ccc3c2)n1 [Compound 262, (S)-methyl 1-(4-(2-tert-butyl-5-(1H-pyrrolo[2,3-b]pyridin-5-yl)-1H-imidazol-4-yl)pyrimidin-2-ylamino)propan-2-ylcarbamate]",0.2
16,"COC(=O)N[C@@H](C)CNc1nccc(-c2nc(C(C)(C)C)[nH]c2-c2cnc3[nH]cc(C(F)(F)F)c3c2)n1 [Compound 263, (S)-methyl 1-(4-(2-tert-butyl-5-(3-(trifluoromethyl)-1H-pyrrolo[2,3-b]pyridin-5-yl)-1H-imidazol-4-yl)pyrimidin-2-ylamino)propan-2-ylcarbamate]",65

row,SMILES,IC50 [nM]
1,"CCS(=O)(=O)N1CCN(c2nc(-c3ccncc3)c(-c3cnc(N)c(OC)c3)[nH]2)CC1 [Compound 264, 5-(2-(4-(ethylsulfonyl)piperazin-1-yl)-4-(pyridin-4-yl)-1H-imidazol-5-yl)-3-methoxypyridin-2-amine]",40
2,"COC(=O)N[C@@H](C)CNc1nccc(-c2[nH]c(C(C)(C)C)nc2-c2cnc(N)c(OC(F)F)c2)n1 [Compound 265, (S)-methyl 1-(4-(4-(6-amino-5-(difluoromethoxy)pyridin-3-yl)-2-tert-butyl-1H-imidazol-5-yl)pyrimidin-2-ylamino)propan-2-ylcarbamate]",0.01
3,"COc1cc(-c2nc(-c3ccccc3)[nH]c2-c2ccncc2)cnc1N [Example 1, 3-Methoxy-5-(2-phenyl-5-(pyridine-4-yl)-1H-imidazol-4-yl)pyridine-2-amine]",1
4,"COc1cc(-c2[nH]c(-c3ccc(C(F)(F)F)cc3)nc2-c2ccncc2)cnc1N [Example 2, 3-methoxy-5-(5-(pyridine-4-yl)-2-(4-(trifluoromethyl)phenyl)-1H-imidazol-4-yl)pyridin-2-amine]",0.4
5,"COc1cc(-c2nc(-c3ccccc3)[nH]c2-c2ccnc(NCCO)n2)cnc1N [Example 3, 2-(4-(4-(6-amino-5-methoxypyridin-3-yl)-2-phenyl-1H-imidazol-5-yl)pyrimidin-2-ylamino)ethanol]",1.3
6,"COCC(=O)N[C@@H](C)CNc1nccc(-c2[nH]c(-c3ccc(C(F)(F)F)cc3)nc2-c2cnc(N)c(OC)n2)n1 [Example 4, (S)—N-(1-(4-(4-(5-amino-6-methoxypyrazin-2-yl)-2-(4-(trifluoromethyl)phenyl)-1H-imidazol-5-yl)pyrimidin-2-ylamino)propan-2-yl)-2-methoxyacetamide]",0.1
7,"COCC(=O)N[C@@H](C)CNc1nccc(-c2[nH]c(-c3ccc(F)cc3)nc2-c2cnc(N)c(OC)n2)n1 [Example 5, (S)—N-(1-(4-(4-(5-amino-6-methoxylpyrazin-2-yl)-2-(4-fluorophenyl)-1H-imidazol-5-yl)pyrimidin-2-ylamino)propan-2-yl)-2-methoxyacetamide]",0.2
8,COc1cc(-c2nc(C(C)(C)C)[nH]c2-c2ccnc(NC[C@H](C)O)n2)cnc1N [Example 6],0.3
9,"COCC(=O)N[C@@H](C)CNc1nccc(-c2[nH]c(C(C)(C)C)nc2-c2cnc(N)c(OC)n2)n1 [Example 7, (S)—N-(1-(4-(4-(5-amino-6-methoxypyrazin-2-yl)-2-tert-butyl-1H-imidazol-5-yl)pyrimidin-2-ylamino)propan-2-yl)-2-methoxyacetamide]",0.3
10,"COC(=O)N[C@@H](C)CNc1nccc(-c2[nH]c(C(C)(C)C)nc2-c2cnc(N)c(OC)n2)n1 [Example 8, (S)-methyl 1-(4-(4-(5-amino-6-methoxypyrazin-2-yl)-2-tert-butyl-1H-imidazol-5-yl)pyrimidin-2-ylamino)propan-2-ylcarbamate]",0.1
11,"COc1cc(Nc2nccc(-c3[nH]c(C(C)(C)C)nc3-c3cnc(N)c(OC)n3)n2)ccn1 [Example 9, 4-(4-(5-amino-6-methoxypyrazin-2-yl)-2-tert-butyl-1H-imidazol-5-yl)-N-(2-methoxypyridin-4-yl)pyrimidin-2-amine]",0.1
12,"COc1cc(-c2[nH]c(-c3ccc(F)cc3)nc2C2CCOCC2)cnc1N [Example 10, 5-(2-(4-fluorophenyl)-5-(tetrahydro-2H-pyran-4-yl)-1H-imidazol-4-yl)-3-methoxypyridin-2-amine]",405
13,"COc1cc(-c2[nH]c(-c3ccc(F)cc3)nc2-c2cncs2)cnc1N [Example 11, 5-(2-(4-fluorophenyl)-5-(thiazol-5-yl)-1H-imidazol-4-yl)-3-methoxypyridin-2-amine]",36.5
14,"Fc1ccc(-c2nc(-c3ccncc3)c(-c3cnc4[nH]cc(Cl)c4c3)[nH]2)cc1 [Example 12, 3-chloro-5-(2-(4-fluorophenyl)-4-(pyridine-4-yl)-1H-imidazol-5-yl)-1H-pyrrolo[2,3-b]pyridine]",2
15,"COc1cc(-c2nc(-c3ccc(F)cc3)oc2-c2ccncc2)cnc1N [Example 13, 5-(2-(4-fluorophenyl)-5-(pyridin-4-yl)oxazol-4-yl)-3-methoxypyridin-2-amine]",0.5

# From US20100003246A1, “Novel heterocyclic compounds and uses therof” (priority 2008, published 2010)
